What was measured:
MDA-MB-231 xenografts = experiment: Treatment of MDA-MB-231 xenografts in NCR nu/nu mice; assay type: in vivo, mouse; conditions: 1.0 mg/kg (normalized to platinum or TMV content), weekly intravenous bolus
Experimental: FIGS. 7A-C show treatment of MDA-MB-231 xenografts in an athymic mouse model. […] Tumor volumes were monitored daily, and total volume was normalized to initial tumor size at time of treatment. Each treatment group consists of 5 animals (n=5); *indicates p<0.05.
All animal studies were carried using IACUC-approved procedures. […] The dosage was normalized to platinum or TMV content.

[1] = tested on: OV81.2 (ovarian cancer, primary patient cells); experiment: MTT assay, primary patient ovarian cancer cells; assay type: cell-based, human; conditions: primary patient cells OV81.2
Experimental: (§1) The assay was performed as per manufacturer's recommendation; a BioTek Synergy HT multidetection microplate reader was used for read-out.

[2] = tested on: A2780/CP70 (ovarian cancer resistant to cisplatin); experiment: MTT assay, ovarian cancer cells resistant to cisplatin; assay type: cell-based, human; conditions: ovarian cancer cells resistant to cisplatin treatment
Experimental: as §1

In the case of `N.N.[Cl][Pt][Cl]` [cisplatin], the “tumor growth / treatment effect” value (MDA-MB-231 xenografts) is reported as “ineffective”.
In the case of phenanthriplatin, the “tumor growth / treatment effect” value (MDA-MB-231 xenografts) is reported as “ineffective”, the efficacy versus cisplatin [1] is reported as “Enhanced efficacy” and the efficacy versus cisplatin [2] is reported as “enhanced efficacy”.

Reference: US11883505B2, “Anticancer drug-containing plant virus particles” (CASE WESTERN RESERVE UNIVERSITY, priority 2015, dated 2024)
